The target in the experiment is T1, VFT2 domain of BvgS (Bordetella pertussis, UniProt P16575).
T1 construct: His tag from pColdII (no GB1)
As to the kind of experiment: isothermal titration calorimetry. The class given is binding. Conditions: 50 mM sodium phosphate, pH 7.4; 300 µM lonidamine into 20 µM VFT2. (ITC needs no label: the signal is the heat of the interaction.)

Among the data in paper PMC11873758, “Lonidamine, a Novel Modulator for the BvgAS System of Bordetella Species” (Microbiology and Immunology, 2024) are isothermal titration calorimetry values, retold here.

T1 sequence (P16575 290-541): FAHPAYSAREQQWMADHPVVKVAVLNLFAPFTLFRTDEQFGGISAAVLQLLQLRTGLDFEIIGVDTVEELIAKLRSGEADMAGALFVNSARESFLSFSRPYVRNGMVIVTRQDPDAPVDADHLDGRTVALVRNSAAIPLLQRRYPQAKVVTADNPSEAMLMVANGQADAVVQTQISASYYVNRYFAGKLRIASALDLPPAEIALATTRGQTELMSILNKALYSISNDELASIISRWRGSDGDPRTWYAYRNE

In the case of `O=C(O)c1nn(Cc2ccc(Cl)cc2Cl)c2ccccc12` [#5, 1‐(2,4‐dichlorobenzyl)‐1H‐indazole‐3‐carboxylic acid], the isothermal titration calorimetry entry is on record as “ITC revealed that lonidamine bound to VFT2 but not VFT1”.
